{
  "source": "patent US9545453B2",
  "about": "“CXCR4 inhibiting carriers for nucleic acid delivery” (Wayne State University, priority 2011, dated 2017)",
  "key": {"CXCR4+U2OS cells [1]": {"tested_on": "CXCR4+U2OS cells", "experiment": "Matrigel cell invasion assay towards CXCL12", "format": "cell-based, Human", "conditions": "CXCL12-mediated invasion, 16 h", "method": "The upper sides of the transwell inserts were coated with 40 μl Matrigel diluted in serum-free medium (v/v 1:3) per insert. The 24-well plates with coated inserts were then placed in 37° C. incubator for 2 h. CXCR4+U2OS cells were trypsinized and resuspended in different concentrations of drugs in serum-free medium for 30 min before adding to the inserts at a final concentration of 10,000 cells in 300 μl medium per insert. 20 nM CXCL12 in serum-free medium as the chemo-attractant was then added to corresponding wells in the companion plate. After 16 h, the non-invaded cells on the upper surface of the inserts were removed with a cotton swab. The invaded cells were then fixed and stained by dipping the inserts into Diff-Quick solution. The images were taken by EVOS ×1 microscope. Five 20× imaging areas were randomly selected for each insert and each sample was conducted in triplicate. Statistical significance of the observed differences in cell invasion was analyzed using non-parametric ANOVA with Dunn's multiple comparison test using GraphPad InStat (v. 3.10). P<0.05 was considered significant.\nTo further confirm the CXCR4 antagonism of RPA and RPA/DNA polyplexes, the anti-metastatic ability was evaluated by a Matrigel cell invasion assay. […] The DNA dose used in the experiment with the polyplexes (1 μg/mL DNA) was in the range of typical doses used in transfection experiments."}, "CXCR4 [2]": {"molecular_target": "T1, CXCR4 (Homo sapiens, UniProt P61073)", "experiment": "CXCL12-induced intracellular calcium flux (Fluo-3)", "format": "cell-based", "conditions": "Fluo-3 calcium indicator, CXCL12 stimulation", "text": "Binding of chemokine CXCL12 to its receptor CXCR4 triggers an intracellular signal transduction cascade comprising a transient increase in cytosolic free calcium."}, "[3]": {"conditions": "complexes with nucleic acids", "text": "Ability to condense DNA is a prerequisite for successful polyplex gene delivery. FIG. 1 schematically represents this process."}, "CXCR4 [4]": {"molecular_target": "T1, CXCR4", "experiment": "Phorbol myristate acetate-stimulated CXCR4 internalization", "format": "cell-based", "conditions": "100 ng/mL phorbol myristate acetate", "text": "It has been reported that CXCL12 and phorbol esters trigger CXCR4 internalization through entirely different uptake pathway (Signoret, Oldridge et al. 1997)."}, "pDNA": {"tested_on": "pDNA", "experiment": "DNA condensation by ethidium bromide exclusion assay", "format": "physicochemical", "conditions": "pH 7.4", "procedure": "(§1) The ability of P(AMD-CBA) to condense pDNA was determined by ethidium bromide exclusion (EtBr) assay by measuring the changes in EtBr/pDNA fluorescence. pDNA solution at a concentration of 20 μg/mL was mixed with EtBr (1 μg/mL) and fluorescence was measured and set to 100% using an excitation wavelength of 540 nm and an emission wavelength of 590 nm. Fluorescence readings were taken following a stepwise addition of the polycation solution, and the condensation curve for each polycation was constructed.\nas §1, with “P(Cyc-CBA)” for “P(AMD-CBA)”\nAt pH 7.4, a w/w ratio above 2 was required for RPA to fully condense the DNA, which was higher than that required in case of RHB (w/w 1) and PEI (w/w 0.5). […] The redox stability of RPA/DNA polyplexes was tested by agarose gel electrophoresis after GSH treatment."}, "[5]": {"experiment": "Toxicity of copper complexes of P(AMD-CBA) (procedure of example 14)", "format": "cell-based", "method": "20,000 cells were seeded per well in 96-well plates 24 hours ahead. The culturing medium was first removed and then replaced with 150 μL of medium containing increasing concentration of the polycations. After 24 hours, the incubation medium was removed and a mixture of 100 μL of fresh serum-free medium and 20 μL of MTS reagent solution was added to each well. The cells were incubated for at 37° C. in CO2 incubator for 2 hours. The absorbance at wavelength 505 nm was then measured to determine cell viability. IC50 values were calculated by Prism Graphpad Software.\nToxicity of polycations was also evaluated by MTS assay in Hep G2 cells and CXCR4+U2OS cells. […] Hep G2 cells were maintained in MEM supplemented with 10% FBS. Human epithelial osteosarcoma U2OS cells stably expressing human CXCR4 receptor fused to the N-terminus of enhanced green fluorescent protein were purchased form Fisher Scientific. The cells were cultured in DMEM supplemented with 2 mM L-Glutamine, 10% FBS, 1% Pen-Strep and 0.5 mg/ml G418. The cells were plated into 96-well microtiter plates at a density of 20,000 cells/well. […] After 2 h incubation, the absorbance was measured spectrophotometrically in Synergy 2 Microplate Reader (BioTek, VT) at a wavelength of 490 nm. The relative cell viability (%) was calculated as [A]sample/[A]untreated×100%."}, "CXCR4+U2OS cells [6]": {"tested_on": "CXCR4+U2OS cells", "experiment": "Luciferase transfection in CXCR4+U2OS cells", "format": "cell-based, Human", "conditions": "100 ng/mL, serum-free medium, 4 h"}},
  "note": "“Also recorded” adds a separate entry of the source.",
  "data": [
    {"smiles": "c1cc(CN2CCCNCCNCCCNCC2)ccc1CN1CCCNCCNCCCNCC1", "note": "[AMD3100, 1,1′-[1,4-Phenylenebis(methylene)]bis[1,4,8,11-tetraazacyclotetradecane]]", "values": [
      {"measurement": "Blocked invasion (% of cells)", "setting": "CXCR4+U2OS cells [1]", "result": 75, "unit": "%"},
      {"measurement": "Effect on CXCL12-induced calcium signaling (CXCR4-mediated)", "setting": "CXCR4 [2]", "result": "strong antagonistic effect; also recorded: CXCL12 antagonists"},
      {"measurement": "Transfection level", "setting": "[3]", "result": "only background levels of transfection"},
      {"measurement": "Inhibition of phorbol-stimulated CXCR4 internalization", "setting": "CXCR4 [4]", "result": "do not inhibit"},
      {"measurement": "Decrease in EtBr fluorescence", "setting": "pDNA", "result": "about 30%"}
    ]},
    {"smiles": "[Cl][Cu][Cl]", "note": "[CuCl2]", "values": [
      {"measurement": "Toxicity with increasing copper content", "setting": "[5]", "result": "No toxicity"}
    ]},
    {"smiles": "CCCCCCCCCCCCCC(=O)O[C@@H]1[C@@H](C)[C@@]2(O)[C@@H](C=C(CO)C[C@]3(O)C(=O)C(C)=C[C@@H]23)[C@@H]2C(C)(C)[C@]12OC(C)=O", "note": "[PMA, phorbol 12-myristate 13-acetate]", "values": [
      {"measurement": "Cytotoxicity under the transfection conditions", "setting": "CXCR4+U2OS cells [6]", "result": "No cytotoxicity"}
    ]}
  ]
}
